The source of these data is patent US20050027106A1, “Cancerous disease modifying antibodies” (priority 2003, published 2005).

In data set [1] the test system is HT-29 colon cancer cell line. Description: Live/Dead cytotoxicity assay, hybridoma supernatant. Conditions: 5 days. The procedure:
(§1) In conjunction with testing for antibody binding, the cytotoxic effects of the hybridoma supernatants were tested in the same colon cancer and normal cell lines: HT-29, SW1116 (and Lovo for AR26A439.3) and CCD-27sk. The Live/Dead cytotoxicity assay was obtained from Molecular Probes ([…].). The assays were performed according to the manufacturer's instructions with the changes outlined below. Cells were plated before the assay at the predetermined appropriate density. After 2 days, 100 μl of supernatant from the hybridoma microtitre plates were transferred to the cell plates and incubated in a 5 percent CO2 incubator for 5 days. […] An anti-EGFR antibody (C225) was also used in the assay for comparison. After 5 days of treatment, the plate was then emptied by inverting and blotting dry. Room temperature DPBS (Dulbecco's phosphate buffered saline) containing MgCl2 and CaCl2 was dispensed into each well from a multichannel squeeze bottle, tapped 3 times, emptied by inversion and then blotted dry. 50 μl of the fluorescent Live/Dead dye diluted in DPBS containing MgCl2 and CaCl2 was added to each well and incubated at 37° C. in a 5% CO2 incubator for 30 minutes. The plates were read in a Perkin-Elmer HTS7000 fluorescence plate reader and the data was analyzed in Microsoft Excel.

Assay in data set [2]: as above
Particulars: human. The protocol: as §1

The test system of data set [3] is CCD-27sk normal cell line. Described as above. Conditions: 5 days. The protocol: as §1

As to `C[C@@H]1C[C@@H]([C@H](O)CC2CC(=O)NC(=O)C2)C(=O)[C@@H](C)C1` [Cycloheximide], the “Cytotoxicity (%) HT-29 Average” value in data set [1] was 48%. The results for the cytotoxicity at 5 days in data set [2], in data set [2] (Cytotoxicity (%) CCD-27sk Average) and in data set [2] (Cytotoxicity (%) HT-29 Average) were 56%, 21% and 46%, respectively. In addition, the “Cytotoxicity (%) CCD-27sk Average” value in data set [3] was 40%.
Consider `[N-]=[N+]=[N-]` [NaN3, sodium azide], for which the “Cytotoxicity (%) HT-29 Average” value in data set [1] came out at 57%. In addition, the values for the cytotoxicity at 5 days in data set [2] and in data set [2] (Cytotoxicity (%) HT-29 Average) were 4% and 59%, respectively.
